ChEMBL document CHEMBL1255442, “Assay of colistin and colistin methanesulfonate in plasma and urine by liquid chromatography-tandem mass spectrometry” (Antimicrob Agents Chemother, 2010)

Columns and labels:
Assay type in all cases: ADME, organism-based
Plasma [1] = test: Stability of the compound in healthy human spiked plasma assessed as Colistin methanesulfonate B at 80 mg, iv administered for 60 mins measured after 1 hr in room temperature by LC-MS/MS assay; conditions: in vivo
Plasma [2] = test: Stability of the compound in healthy human spiked plasma assessed as Colistin methanesulfonate B at 80 mg, iv administered for 60 mins measured after 2 freeze-thaw cycles by LC-MS/MS assay; conditions: in vivo, 1 h
[3] = Stability of the compound in healthy human spiked urine assessed as Colistin methanesulfonate B at 80 mg, iv administered for 60 mins measured after 1 hr in room temperature by LC-MS/MS assay; conditions: in vivo
Plasma [4] = test: Stability of the compound in healthy human spiked plasma assessed as Colistin methanesulfonate A degradation at 80 mg, iv administered for 60 mins measured after 4 hrs in room temperature by LC-MS/MS assay; conditions: in vivo
Plasma [5] = test: Stability of the compound in healthy human spiked plasma assessed as Colistin methanesulfonate B at 80 mg, iv administered for 60 mins measured post 2 months of incubation at -20 degC by LC-MS/MS assay; conditions: in vivo, 1 h
Plasma [6] = test: Stability of the compound in healthy human spiked plasma assessed as Colistin methanesulfonate B at 80 mg, iv administered for 60 mins measured under acidic pretreatment by LC-MS/MS assay; conditions: in vivo, 1 h
Plasma [7] = test: Stability of the compound in healthy human spiked plasma assessed as Colistin methanesulfonate A degradation at 80 mg, iv administered for 60 mins measured under nonacidic pretreatment by LC-MS/MS assay; conditions: in vivo, 1 h
[8] = Stability of the compound in healthy human spiked urine assessed as Colistin methanesulfonate A degradation at 80 mg, iv administered for 60 mins measured after 2 freeze-thaw cycles by LC-MS/MS assay; conditions: in vivo, 1 h
[9] = Stability of the compound in healthy human spiked urine assessed as Colistin methanesulfonate B at 80 mg, iv administered for 60 mins measured after 4 hrs in room temperature by LC-MS/MS assay; conditions: in vivo
Plasma [10] = test: Stability of the compound in healthy human spiked plasma assessed as Colistin methanesulfonate A at 80 mg, iv administered for 60 mins measured under nonacidic pretreatment by LC-MS/MS assay; conditions: in vivo, 1 h
[11] = Stability of the compound in healthy human spiked urine assessed as Colistin methanesulfonate B at 80 mg, iv administered for 60 mins measured at room temperature by LC-MS/MS assay; conditions: in vivo, 1 h
Plasma [12] = test: Stability of the compound in healthy human spiked plasma assessed as Colistin methanesulfonate A degradation at 80 mg, iv administered for 60 mins measured post 2 months of incubation at -20 degC by LC-MS/MS assay; conditions: in vivo, 1 h
Plasma [13] = test: Stability of the compound in healthy human spiked plasma assessed as Colistin methanesulfonate A degradation at 80 mg, iv administered for 60 mins measured after 2 freeze-thaw cycles by LC-MS/MS assay; conditions: in vivo, 1 h
Plasma [14] = test: Stability of the compound in healthy human spiked plasma assessed as Colistin methanesulfonate B at 80 mg, iv administered for 60 mins measured under nonacidic pretreatment by LC-MS/MS assay; conditions: in vivo, 1 h
[15] = Stability of the compound in healthy human spiked urine assessed as Colistin methanesulfonate A at 80 mg, iv administered for 60 mins measured after 2 freeze-thaw cycles by LC-MS/MS assay; conditions: in vivo, 1 h
[16] = Stability of the compound in healthy human spiked urine assessed as Colistin methanesulfonate A at 80 mg, iv administered for 60 mins measured after 4 hrs in room temperature by LC-MS/MS assay; conditions: in vivo
[17] = Stability of the compound in healthy human spiked urine assessed as Colistin methanesulfonate B at 80 mg, iv administered for 60 mins measured after 2 freeze-thaw cycles by LC-MS/MS assay; conditions: in vivo, 1 h
Plasma [18] = test: Stability of the compound in healthy human spiked plasma assessed as Colistin methanesulfonate A at 80 mg, iv administered for 60 mins measured after 1 hr in room temperature by LC-MS/MS assay; conditions: in vivo
[19] = Stability of the compound in healthy human spiked urine assessed as Colistin methanesulfonate A degradation at 80 mg, iv administered for 60 mins measured after 1 hr in room temperature by LC-MS/MS assay; conditions: in vivo
Plasma [20] = test: Stability of the compound in healthy human spiked plasma assessed as Colistin methanesulfonate A at 80 mg, iv administered for 60 mins measured after 5 hrs at 4 degC by LC-MS/MS assay; conditions: in vivo
[21] = Stability of the compound in healthy human spiked urine assessed as Colistin methanesulfonate A degradation at 80 mg, iv administered for 60 mins measured at room temperature by LC-MS/MS assay; conditions: in vivo, 1 h
Plasma [22] = test: Stability of the compound in healthy human spiked plasma assessed as Colistin methanesulfonate B degradation at 80 mg, iv administered for 60 mins measured after 2 freeze-thaw cycles by LC-MS/MS assay; conditions: in vivo, 1 h
[23] = Stability of the compound in healthy human spiked urine assessed as Colistin methanesulfonate B degradation at 80 mg, iv administered for 60 mins measured after 4 hrs in room temperature by LC-MS/MS assay; conditions: in vivo
Plasma [24] = test: Stability of the compound in healthy human spiked plasma assessed as initial Colistin methanesulfonate A at 80 mg, iv administered for 60 mins measured after 2 freeze-thaw cycles by LC-MS/MS assay; conditions: in vivo, 1 h
Plasma [25] = test: Stability of the compound in healthy human spiked plasma assessed as initial Colistin methanesulfonate A at 80 mg, iv administered for 60 mins measured under acidic pretreatment by LC-MS/MS assay; conditions: in vivo, 1 h
Plasma [26] = test: Stability of the compound in healthy human spiked plasma assessed as Colistin methanesulfonate B degradation at 80 mg, iv administered for 60 mins measured after 5 hrs at 4 degC by LC-MS/MS assay; conditions: in vivo
[27] = Stability of the compound in healthy human spiked urine assessed as Colistin methanesulfonate A at 80 mg, iv administered for 60 mins measured after 1 hr in room temperature by LC-MS/MS assay; conditions: in vivo
Plasma [28] = test: Stability of the compound in healthy human spiked plasma assessed as initial Colistin methanesulfonate B at 80 mg, iv administered for 60 mins measured under acidic pretreatment by LC-MS/MS assay; conditions: in vivo, 1 h
Plasma [29] = test: Stability of the compound in healthy human spiked plasma assessed as Colistin methanesulfonate B at 80 mg, iv administered for 60 mins measured after 5 hrs at 4 degC by LC-MS/MS assay; conditions: in vivo
Plasma [30] = test: Stability of the compound in healthy human spiked plasma assessed as initial Colistin methanesulfonate B at 80 mg, iv administered for 60 mins measured after 2 freeze-thaw cycles by LC-MS/MS assay; conditions: in vivo, 1 h
[31] = Stability of the compound in healthy human spiked urine assessed as Colistin methanesulfonate A at 80 mg, iv administered for 60 mins measured at room temperature by LC-MS/MS assay; conditions: in vivo, 1 h
Plasma [32] = test: Stability of the compound in healthy human spiked plasma assessed as Colistin methanesulfonate A degradation at 80 mg, iv administered for 60 mins measured after 1 hr in room temperature by LC-MS/MS assay; conditions: in vivo
Plasma [33] = test: Stability of the compound in healthy human spiked plasma assessed as Colistin methanesulfonate B at 80 mg, iv administered for 60 mins measured after 4 hrs in room temperature by LC-MS/MS assay; conditions: in vivo
Plasma [34] = test: Stability of the compound in healthy human spiked plasma assessed as Colistin methanesulfonate B degradation at 80 mg, iv administered for 60 mins measured post 2 months of incubation at -20 degC by LC-MS/MS assay; conditions: in vivo, 1 h
Plasma [35] = test: Stability of the compound in healthy human spiked plasma assessed as Colistin methanesulfonate B degradation at 80 mg, iv administered for 60 mins measured under nonacidic pretreatment by LC-MS/MS assay; conditions: in vivo, 1 h
[36] = Stability of the compound in healthy human spiked urine assessed as Colistin methanesulfonate A degradation at 80 mg, iv administered for 60 mins measured after 4 hrs in room temperature by LC-MS/MS assay; conditions: in vivo
Plasma [37] = test: Stability of the compound in healthy human spiked plasma assessed as Colistin methanesulfonate A at 80 mg, iv administered for 60 mins measured after 2 freeze-thaw cycles by LC-MS/MS assay; conditions: in vivo, 1 h
Plasma [38] = test: Stability of the compound in healthy human spiked plasma assessed as Colistin methanesulfonate A degradation at 80 mg, iv administered for 60 mins measured after 5 hrs at 4 degC by LC-MS/MS assay; conditions: in vivo
Plasma [39] = test: Stability of the compound in healthy human spiked plasma assessed as initial Colistin methanesulfonate A at 80 mg, iv administered for 60 mins measured post 2 months of incubation at -20 degC by LC-MS/MS assay; conditions: in vivo, 1 h, pooled result: one value given for 9 cell lines, strains, targets or settings
Plasma [40] = test: Stability of the compound in healthy human spiked plasma assessed as Colistin methanesulfonate B degradation at 80 mg, iv administered for 60 mins measured under acidic pretreatment by LC-MS/MS assay; conditions: in vivo, 1 h
[41] = Stability of the compound in healthy human spiked urine assessed as Colistin methanesulfonate B degradation at 80 mg, iv administered for 60 mins measured after 2 freeze-thaw cycles by LC-MS/MS assay; conditions: in vivo, 1 h
Plasma [42] = test: Stability of the compound in healthy human spiked plasma assessed as Colistin methanesulfonate B degradation at 80 mg, iv administered for 60 mins measured after 4 hrs in room temperature by LC-MS/MS assay; conditions: in vivo
[43] = Stability of the compound in healthy human spiked urine assessed as Colistin methanesulfonate B degradation at 80 mg, iv administered for 60 mins measured after 1 hr in room temperature by LC-MS/MS assay; conditions: in vivo
Plasma [44] = test: Stability of the compound in healthy human spiked plasma assessed as Colistin methanesulfonate A degradation at 80 mg, iv administered for 60 mins measured under acidic pretreatment by LC-MS/MS assay; conditions: in vivo, 1 h
Plasma [45] = test: Stability of the compound in healthy human spiked plasma assessed as Colistin methanesulfonate B degradation at 80 mg, iv administered for 60 mins measured after 1 hr in room temperature by LC-MS/MS assay; conditions: in vivo
Plasma [46] = test: Stability of the compound in healthy human spiked plasma assessed as Colistin methanesulfonate A at 80 mg, iv administered for 60 mins measured after 4 hrs in room temperature by LC-MS/MS assay; conditions: in vivo
[47] = Stability of the compound in healthy human spiked urine assessed as Colistin methanesulfonate B degradation at 80 mg, iv administered for 60 mins measured at room temperature by LC-MS/MS assay; conditions: in vivo, 1 h
Plasma [48] = test: Stability of the compound in healthy human spiked plasma assessed as Colistin methanesulfonate A at 80 mg, iv administered for 60 mins measured under acidic pretreatment by LC-MS/MS assay; conditions: in vivo, 1 h
Plasma [49] = test: Stability of the compound in healthy human spiked plasma assessed as initial Colistin methanesulfonate B at 80 mg, iv administered for 60 mins measured post 2 months of incubation at -20 degC by LC-MS/MS assay; conditions: in vivo, 1 h, pooled result: one value given for 9 cell lines, strains, targets or settings
Plasma [50] = test: Stability of the compound in healthy human spiked plasma assessed as Colistin methanesulfonate A at 80 mg, iv administered for 60 mins measured post 2 months of incubation at -20 degC by LC-MS/MS assay; conditions: in vivo, 1 h

COLISTIMETHATE SODIUM
Stability (Plasma [1]): 0.029 µg/mL | Stability (Plasma [2]): Unstable | Stability [3]: 0.211 µg/mL | Stability (Plasma [4]): 13.9% | Stability (Plasma [5]): Unstable | Stability (Plasma [6]): 0.485 µg/mL | Stability (Plasma [7]): Stable | Stability [8]: 19.9% | Stability [9]: 0.268 µg/mL | Stability (Plasma [10]): Unstable | Stability [11]: 0.143 µg/mL | Stability (Plasma [12]): Stable | Stability (Plasma [13]): Stable | Stability (Plasma [14]): Unstable | Stability [15]: 0.746 µg/mL | Stability [16]: 1.056 µg/mL | Stability [17]: 0.18 µg/mL | Stability (Plasma [18]): 0.123 µg/mL | Stability [19]: 22.3% | Stability (Plasma [20]): Unstable | Stability [21]: 16.4% | Stability (Plasma [22]): Stable | Stability [23]: 21.4% | Stability (Plasma [24]): 0.937 µg/mL | Stability (Plasma [25]): 7.492 µg/mL | Stability (Plasma [26]): Stable | Stability [27]: 0.835 µg/mL | Stability (Plasma [28]): 2.508 µg/mL | Stability (Plasma [29]): Unstable | Stability (Plasma [30]): 0.313 µg/mL | Stability [31]: 0.614 µg/mL | Stability (Plasma [32]): 3.3% | Stability (Plasma [33]): 0.175 µg/mL | Stability (Plasma [34]): Stable | Stability (Plasma [35]): Stable | Stability [36]: 29.2% | Stability (Plasma [37]): Unstable | Stability (Plasma [38]): Stable | Stability (Plasma [39]): 3.746 µg/mL | Stability (Plasma [40]): 29.1% | Stability [41]: 14.4% | Stability (Plasma [42]): 14% | Stability [43]: 16.8% | Stability (Plasma [44]): 32.5% | Stability (Plasma [45]): 2.3% | Stability (Plasma [46]): 0.519 µg/mL | Stability [47]: 11.6% | Stability (Plasma [48]): 1.626 µg/mL | Stability (Plasma [49]): 1.254 µg/mL | Stability (Plasma [50]): Unstable
